Measurements: patent US20240180138A1, “Heating Transpiration Composition, and Method for Exterminating Harmful Arthropods Using Same” (SUMITOMO CHEMICAL COMPANY, LIMITED, priority 2021, published 2024)

Tests used:
Assay type in all cases: in vivo
[1] = tested on: Common house mosquito (Culex pipiens pallens) female adult insects; assay: Test Example 2: knockdown by burning insect repellent incense in metallic cylinder, 7 minutes; details: B alone
Description: (§1) Wood powder 75 parts by weight, tab powder 5 parts by weight, lees powder 5 parts by weight, siam powder 10 parts by weight, and tapioca starch powder 5 parts by weight were mixed, and appropriate amount of water was added thereto and the resulting mixture was kneaded thoroughly. The kneaded mixture was molded to a sheet shape, and punched out to a spiral shape, and thereafter, the resulting mixture was dried to make an approximate degree of 7 to 10% by weight of moisture contents to prepare the blank insect repellent incense.
(§2) The acetone solution of the testing compounds that were diluted to make the prescribed concentrations were applied dropwise uniformly to the obtained blank insect repellent incense, and then air-dried to prepare the test formulation.
Common house mosquito (Culex pipiens pallens) female adult insects 20 were placed in the glass tube with 4.5 cm of a diameter and 12 cm of a height, and they were shut in the glass tube by covering the opening parts of the top and the bottom thereof with a nylon net having 16 mesh by a rubber band. A metallic cylinder with 22 cm of a diameter and 83 cm of the height was installed and set up, and two (2) of the above glass tube in which common house mosquito (Culex pipiens pallens) were placed were installed in the upper opening part and then fixed. The formulation that was prepared according to the above process was set to fire, and set up in the bottom opening part of the metallic cylinder. Seven (7) minutes later, the number of knockdowned (hereinafter, abbreviated as “KD”) individuals were recorded. The experiments were conducted in triple replicates to calculate the KD ratio.

[2] = tested on: Common house mosquito (Culex pipiens pallens) female adult insects; assay: Test Example 3: knockdown by burning insect repellent incense in metallic cylinder, 10 minutes; details: B alone
Description: as §1, §2
Common house mosquito (Culex pipiens pallens) female adult insects 20 were placed in the glass tube with 4.5 cm of a diameter and 12 cm of a height, and they were shut in the glass tube by covering the opening parts of the top and the bottom thereof with a nylon net having 16 mesh by a rubber band. […] Ten (10) minutes later, the number of knockdowned (hereinafter, abbreviated as “KD”) individuals were recorded. […]

[3] = target: Common house mosquito (Culex pipiens pallens) female adult insects; assay: Test Example 1: knockdown by burning insect repellent incense in metallic cylinder, 6 minutes; details: B alone, 0.01% in incense
Description: as §1, §2
Common house mosquito (Culex pipiens pallens) female adult insects 20 were placed in the glass tube with 4.5 cm of a diameter and 12 cm of a height, and they were shut in the glass tube by covering the opening parts of the top and the bottom thereof with a nylon net having 16 mesh by a rubber band. […] Six (6) minutes later, the number of individuals of knockdowned common house mosquito (Culex pipiens pallens) were recorded. […]

| SMILES | KD ratio when used alone ([1]; 0.005%) | KD ratio when used alone ([1]; 0.01%) | KD ratio when used alone ([2]; 0.01%) | KD ratio when used alone ([2]; 0.005%) | KD ratio when used alone [3] |
| --- | --- | --- | --- | --- | --- |
| CC1(C)[C@H](C=C(Cl)Cl)[C@H]1C(=O)OCc1c(F)c(F)cc(F)c1F [Transfluthrin, transfluthrin] | KD ratio 5.0% | KD ratio 10.0% | KD ratio 81.7% |  |  |
| COCc1c(F)c(F)c(COC(=O)C2C(C=C(C)C)C2(C)C)c(F)c1F (centres unmarked) [Dimefluthrin, dimefluthrin] | KD ratio 2.7% | KD ratio 68.3% |  | KD ratio 45.0% |  |
| C/C=C/C1C(C(=O)OCc2c(F)c(F)c(COC)c(F)c2F)C1(C)C (centres unmarked) [Metofluthrin, metofluthrin] |  | KD ratio 75.0% |  |  | KD ratio 30.0% |
